Consider three molecules from patent US7531567B2, “Use of a medicament containing an effector of the glutathione metabolism together with α-lipoic acid in kidney replacement therapy” (Serumwerk Bernburg AG, priority 2001, dated 2009).

Counter-ions that a name gives are not always drawn.

Common to all, as to type: cell-based, human
For test [1], the system named is T lymphocytes. The experiment in a line: activation markers CD69, CD25, CD71 of phytohemagglutinin-stimulated T lymphocytes. As to conditions: thiol-deficient cells, culture period of 72 hours, FIG. 3. On the procedure: In the culture batch described under example 1, human T lymphocytes were stimulated with […] of phyto-hemagglutinin. […] The influence of the combinations used according to the invention on the activation markers CD69 (early activation antigen), CD25 (intermediate activation antigen) and CD71 (late activation antigen) of T lymphocytes was investigated. In FIG. 3, the action of the combination of α-lipoic acid and ambroxole (FIG. 3a), and α-lipoic acid and enalapril (FIG. 3b) on the activation index of T lymphocytes is shown. Compared with normal T lymphocytes (activation index=1.0), in thiol-deficient cells a clear lowering of the activatability, confirming the cellular functional disorder, is to be noted. […] It can thus be concluded that the normalization of the cellular thiol status mediated by the combined use of α-lipoic acid and the respective effectors of the glutathione metabolism is accompanied by a restitution of the cellular functionality.

Test [2] deals with peritoneal macrophages. The experiment in a line: stability of membrane-bound thiol restitution in peritoneal macrophages in the dialysis model. To be noted: dialysis model over 14 days; FIG. 7. On the procedure: The peritoneal macrophages described under example 3, which were thiol-restituted by means of the combinations used according to the invention, were removed from this test system after 6 days and cultured in a dialysis model over a period of 14 days. For this, the peritoneal macrophages were adapted to mobile collagen IV-coated matrices and brought into contact with conventional dialysis solution 3 times daily for 60 minutes each. This model served here for the induction of a combined […]/osmotic stress. In FIG. 6, the action of the combination of α-lipoic acid and ambroxole (FIG. 6a), and α-lipoic acid and enalapril (FIG. 6b) on the intracellular thiol expression of the peritoneal macrophages in the time kinetics is presented. The membrane expression of thiols was determined by means of the mean fluorescence intensity (mfi) of the sample (3000 cells/measurement) after coupling to a chloro-methylfluorochrome derivative.

Test [3] concerns peritoneal macrophages. The test is described as follows: phagocytic ability of peritoneal macrophages (fluorochrome-labelled bacteria). As to conditions: treatment period of 6 days; for Phagocytosis rate: α-lipoic acid 50 μM, ambroxole 10 μM, enalapril 5 μM, captopril 10 μM. As to the method:
Peritoneal macrophages were isolated analogously to the procedure described under example 3 and cultured ex vivo. The determination of the phagocytic power was carried out by means of a cytofluorometric test at the individual cell level. In this test, the macrophages were cocultured with opsonized and fluorochrome-labelled bacteria. The amount of bacteria taken up in a defined time period was recorded quantitatively by means of the fluorescence intensity in the macrophages and was regarded as a measure of their phagocytic capacity. The influence of the combinations used according to the invention on the phagocytic ability of the peritoneal macrophages after a treatment period of 6 days is presented in Table 3.

The subject of test [4] is peritoneal macrophages. The test is described as follows: degree of differentiation and activation of peritoneal macrophages (CD15, CD11c, CD69, CD71). To be noted: incubation for 6 days, control = 1.0, α-lipoic acid 50 μM, ambroxole 10 μM, enalapril 5 μM, captopril 10 μM; for CD15/69: CD69 on CD15-positive cells; for CD11c/71: CD71 on CD11c-positive cells. On the procedure:
Peritoneal macrophages were isolated from patients under kidney replacement therapy according to the processes described under example 3 and cultured in the presence of the combinations of α-lipoic acid and effectors of the glutathione metabolism named according to the invention. After incubation for 6 days, the degree of differentiation of the peritoneal macrophages was determined cytofluorometrically by means of the expression of the cell surface antigens CD15 and CD11c, and the degree of cellular activation by means of the coexpression of the activation antigens CD69 on CD15-positive cells and CD71 on CD11c-positive cells.

Test [5] concerns peritoneal macrophages. The experiment in a line: cytokine synthesis of peritoneal macrophages (enzyme immunoassay). To be noted: treatment period of 6 days (n=10); α-lipoic acid 50 μM, ambroxole 10 μM, enalapril 5 μM, captopril 10 μM. As to the method:
In parallel to this, in this experimental batch the cell culture supernatants were recovered and the cytokines interleukin-6 (IL-6) and interleukin-1 receptor antagonist (IL-1ra) contained therein, synthesized and secreted by the peritoneal macrophages, were determined.

Test [6] concerns peritoneal macrophages. The experiment in a line: cellular thiol expression of peritoneal macrophages in kidney replacement therapy. To be noted: time kinetics over 14 days (n=12); FIG. 4. On the procedure: Peritoneal macrophages were isolated from the effluate of the peritoneal dialysis of high-grade renally insufficient patients, taken up in cell culture medium and incubated in a gas incubator at 37° C., a relative humidity of 98% and 7.5% relative air-CO2 content. In order to test the influence of the combinations used according to the invention on the thiol status of the peritoneal macrophages, in each case a fraction was treated with α-lipoic acid, the effector of the glutathione metabolism ambroxole or the ACE inhibitor enalapril or with the combination of α-lipoic acid/ambroxole or α-lipoic acid/enalapril, while in each case a further fraction was used as an untreated control. The determination of the cellular thiol status was carried out by means of the measuring method described under 1. The membrane expression of thiols was determined by means of the mean fluorescence intensity (mfi) of the sample (3000 cells/measurement) after coupling to a chloromethylfluorochrome derivative. In FIG. 4, the effect of the combination of α-lipoic acid and ambroxole (FIG. 4a), and α-lipoic acid and enalapril (FIG. 4b) in the time kinetics over 14 days is shown (n=12).

Test [7] deals with lymphocytes (peripheral immune cells). The test is described as follows: intracellular thiol expression of peripheral immune cells (CMFDA flow cytofluorimetry). To be noted: α-lipoic acid 50 μM, captopril 10 μM, combination at the same concentrations. As to the method: Peripheral immune cells of healthy donors (n=9) were isolated from the peripheral blood by means of density gradient centrifugation. Lymphocytes having a donor-dependent relative proportion of about 90% in this case normally represent the main fraction of the resulting total population of mononuclear cells. 10% of the mononuclear cells are represented by monocytes. The mononuclear cells obtained were taken up in special cell culture media and incubated in a gas incubator at 37° C., a relative humidity of 98% and 5% relative air-CO2 content. The metabolism of the primarily resting immune cells was activated by means of mitogenic stimulation (0.5 μg/ml of phytohemagglutinin). In order to test the influence of the combinations used according to the invention on the thiol status of thiol-deficient immune cells, these were artificially thiol-depleted. This was carried out by culturing in thiol-deficient media (RPMI 1603) according to tested procedures. Comparison cultures using whole media (RPMI 1640) served for the definition of the best possible normal value under culture conditions. […] Primarily nonfluorogenic CMFDA is in this case passively taken up by the cell. Binding to cytoplasmic thiol groups takes place via the chloromethyl radical. After removal of the acetate radicals by nonspecific cellular esterases, this, now cell membrane-impermeable complex becomes fluorogenic at an excitation wavelength λex=490 nm with an emission wavelength λem=520 nm. The mean fluorescence intensity of the sample (10,000 cells) is directly proportional to the concentration of the intracellular thiol groups. In FIG. 1, the action of the combination of α-lipoic acid and ambroxole (FIG. 1a) and α-lipoic acid and enalapril (FIG. 1b) on the intracellular thiol expression of lymphocytes is shown. […] The data are shown as the ratio of the cellular fluorescence intensity for calibration particles (beads) in each case analyzed in parallel. The active compound concentration of the respective combination is identical to the concentrations of the individual components.

Test [8] has as its system peripheral immune cells. The experiment in a line: membrane-bound thiol expression of peripheral immune cells (CMTMR flow cytofluorimetry). As to conditions: α-lipoic acid 50 μM, captopril 10 μM, combination at the same concentrations. As to the method:
Peripheral immune cells of healthy donors (n=9) were isolated from the peripheral blood by means of density gradient centrifugation. Lymphocytes having a donor-dependent relative proportion of about 90% in this case normally represent the main fraction of the resulting total population of mononuclear cells. 10% of the mononuclear cells are represented by monocytes. The mononuclear cells obtained were taken up in special cell culture media and incubated in a gas incubator at 37° C., a relative humidity of 98% and 5% relative air-CO2 content. The metabolism of the primarily resting immune cells was activated by means of mitogenic stimulation (0.5 μg/ml of phytohemagglutinin). In order to test the influence of the combinations used according to the invention on the thiol status of thiol-deficient immune cells, these were artificially thiol-depleted. This was carried out by culturing in thiol-deficient media (RPMI 1603) according to tested procedures. Comparison cultures using whole media (RPMI 1640) served for the definition of the best possible normal value under culture conditions. The expression of membrane-bound thiol groups was likewise determined by flow cytofluorimetry. In this connection, chloromethyltetramethylrhodamine (CMTMR) was employed as a thiol conjugate under the conditions of a blocked membrane potential and of an inhibited diffusion capacity of the cells. The fluorescence intensity of the bound fluorochrome molecules on the cell membrane is in this case in turn proportional to the amount of the thiol groups on the cell surface.

In the case of `CCOC(=O)[C@H](CCc1ccccc1)NC(C)C(=O)N1CCCC1C(=O)O` (stereo in doubt) [Enalapril, 1-{N—[(S)-1-ethoxycarbonyl-3-phenylpropyl]-L-alanyl}-L-proline], the “effect on the activation index of T lymphocytes (in words)” value in test [1] is reported as “only equivalent in the case of the effectuation of the CD25 antigen of the α-lipoic acid”. For the same molecule, in test [2], the “membrane-bound thiol expression in the dialysis model (in words)” value is on record as “marginal effects”. In test [3], the “increase in the phagocytosis rate in relation to the untreated control, factor” value is recorded as 1.53 and the Phagocytosis rate is reported as 567 ± 59 mfi/10,000 cells. In test [4], the CD15/69 came to 1.19 ± 0.12, the CD11c/71 amounted to 1.10 ± 0.14, the CD11c worked out at 1.23 ± 0.22 and the CD15 was determined as 1.21 ± 0.22. Further, in test [5], the IL-1ra was found to be 121.1 ± 16.9 ng/10^6 cells and the IL-6 is 41.7 ± 7.3 ng/10^6 cells.
Turning to `Nc1c(Br)cc(Br)cc1CNC1CCC(O)CC1` (stereo not drawn) [Ambroxole, hydrochloride], in test [1], the “effect on the activation index of T lymphocytes (in words)” value was “no influence on one of the three activation markers”. Further, the “membrane-bound thiol expression in the dialysis model (in words)” value in test [2] was “marginal effects”. Moreover, the “effect on the cellular thiol expression of peritoneal macrophages (in words)” value in test [6] is given as “no effect”. For the same molecule, in test [3], the “increase in the phagocytosis rate in relation to the untreated control, factor” value worked out at 1.35 and the Phagocytosis rate was 501 ± 52 mfi/10,000 cells. Moreover, in test [4], the CD15/69 turned out to be 0.98 ± 0.11, the CD11c/71 was 0.96 ± 0.1, the CD11c is listed as 1.01 ± 0.09 and the CD15 turned out to be 0.98 ± 0.13. Also, in test [5], the IL-1ra is 118.6 ± 21.3 ng/10^6 cells and the IL-6 was 51.8 ± 8.1 ng/10^6 cells.
Turning to `C[C@H](CS)C(=O)N1CCC[C@H]1C(=O)O` [Captopril, 1-[(2S)-3-mercapto-2-methylpropionyl]-L-proline], the intracellular thiol expression was 2.88 ± 0.20 mfiBeads/Ratio in test [7] (culture period 0 d); 2.80 ± 0.21 mfiBeads/Ratio in test [7] (culture period 1 d); 2.76 ± 0.22 mfiBeads/Ratio in test [7] (culture period 2 d); 2.49 ± 0.26 mfiBeads/Ratio in test [7] (culture period 3 d); 2.21 ± 0.36 mfiBeads/Ratio in test [7] (culture period 4 d); 1.83 ± 0.33 mfiBeads/Ratio in test [7] (culture period 6 d). The intracellular thiol expression in test [7] (culture period 8 d) is 1.02 ± 0.39 mfiBeads/Ratio; in test [7] (culture period 10 d), 0.91 ± 0.46 mfiBeads/Ratio; in test [7] (culture period 12 d) it was 0.76 ± 0.49 mfiBeads/Ratio; in test [7] (culture period 14 d), 0.75 ± 0.56 mfiBeads/Ratio. For the same molecule, the Membrane-bound thiol expression in test [8] (culture period 0 d) is recorded as 2.37 ± 0.45 mfiBeads/Ratio; in test [8] (culture period 1 d), 2.63 ± 0.39 mfiBeads/Ratio; in test [8] (culture period 2 d), 2.54 ± 0.41 mfiBeads/Ratio; in test [8] (culture period 3 d), 2.52 ± 0.38 mfiBeads/Ratio; in test [8] (culture period 4 d) it was 2.50 ± 0.41 mfiBeads/Ratio; in test [8] (culture period 6 d) it was 2.46 ± 0.50 mfiBeads/Ratio. The Membrane-bound thiol expression was determined as 2.01 ± 0.39 mfiBeads/Ratio in test [8] (culture period 8 d), 1.68 ± 0.29 mfiBeads/Ratio in test [8] (culture period 10 d), 1.02 ± 0.51 mfiBeads/Ratio in test [8] (culture period 12 d) and 0.99 ± 0.46 mfiBeads/Ratio in test [8] (culture period 14 d). Besides, the Phagocytosis rate in test [3] was 653 ± 43 mfi/10,000 cells. In addition, in test [4], the CD15/69 stood at 1.69 ± 0.21. In test [4], the CD11c/71 stood at 1.52 ± 0.16. The CD11c in test [4] came to 1.26 ± 0.24. For the same molecule, in test [4], the CD15 came to 1.19 ± 0.14. The IL-1ra in test [5] came to 129.4 ± 25.1 ng/10^6 cells. For the same molecule, in test [5], the IL-6 is 42.9 ± 7.7 ng/10^6 cells.
